# Source: ChEMBL document CHEMBL1154899, “Synthesis and biological evaluation of caffeic acid 3,4-dihydroxyphenethyl ester” (J Nat Prod, 2010)
# Columns and labels:
# Format in all cases: functional
# NCI-H322M = assay: Antiproliferative activity against human NCI-H322M cells assessed as cell growth at 50 uM by SRB assay; details: read-out: Activity
# IGROV-1 = assay: Antiproliferative activity against human IGROV1 cells assessed as cell growth at 50 uM by SRB assay; details: read-out: Activity
# HT-29 = assay: Antiproliferative activity against human HT-29 cells assessed as cell growth at 5 uM by SRB assay; details: read-out: Activity
# OVCAR-4 = assay: Antiproliferative activity against human OVCAR4 cells assessed as cell growth at 5 uM by SRB assay; details: read-out: Activity
# ACHN = assay: Antiproliferative activity against human ACHN cells assessed as cell growth at 5 uM by SRB assay; details: read-out: Activity
# MCF7 = assay: Antiproliferative activity against human MCF7 cells assessed as cell growth at 5 uM by SRB assay; details: read-out: Activity
# NCI/ADR-RES = assay: Antiproliferative activity against human NCI/ADR-RES cells assessed as cell growth at 500 uM by SRB assay; details: read-out: Activity
# BT-549 = assay: Antiproliferative activity against human BT549 cells assessed as cell growth at 50 uM by SRB assay; details: read-out: Activity
# HOP-62 = assay: Antiproliferative activity against human HOP62 cells assessed as cell growth at 500 uM by SRB assay; details: read-out: Activity
# SK-MEL-5 = assay: Antiproliferative activity against human SK-MEL-5 cells assessed as cell growth at 500 uM by SRB assay; details: read-out: Activity
# OVCAR-5 = assay: Antiproliferative activity against human OVCAR5 cells at 0.5 uM by SRB assay
# SW-620 = assay: Antiproliferative activity against human SW620 cells by SRB assay
# SK-MEL-28 = assay: Antiproliferative activity against human SK-MEL-28 cells by SRB assay
# UACC-62 = assay: Antiproliferative activity against human UACC62 cells by SRB assay
# OVCAR-3 = assay: Antiproliferative activity against human OVCAR-3 cells assessed as cell growth at 0.5 uM by SRB assay; details: read-out: Activity
# NCI-H226 = assay: Antiproliferative activity against human NCI-H226 cells assessed as cell growth at 0.5 uM by SRB assay; details: read-out: Activity
# NCI-H460 = assay: Antiproliferative activity against human NCI-H460 cells assessed as cell growth at 5 uM by SRB assay; details: read-out: Activity
# [1] = read-out: LC50 (the source's name)
# [2] = read-out: pLC50 (the source's name) (converted)
smiles,measurement,setting,value
O=C(/C=C/c1ccc(O)c(O)c1)OCCc1ccc(O)c(O)c1,growth at 50 µM,NCI-H322M,97%
same,growth at 50 µM,IGROV-1,98%
same,growth at 5 µM,HT-29,103%
same,growth at 5 µM,OVCAR-4,95%
same,growth at 5 µM,ACHN,95%
same,growth at 5 µM,MCF7,108%
same,growth at 500 µM,NCI/ADR-RES,78%
same,growth at 50 µM,BT-549,97%
same,growth at 500 µM,HOP-62,95%
same,growth at 500 µM,SK-MEL-5,64%
same,Activity,OVCAR-5,94%
same,GI50,SW-620; read-out: GI50,10.2 µM
same,CC50,SW-620; [1],> 50 µM
same,TGI,SW-620; read-out: TGI,> 50 µM
same,GI50,SW-620; read-out: pGI50 (converted),10.2 µM
same,CC50,SW-620; [2],> 50.1 µM
same,TGI,SW-620; read-out: pTGI,> 50.1 µM
same,GI50,SK-MEL-28; read-out: GI50,6.51 µM
same,CC50,SK-MEL-28; [1],> 50 µM
same,TGI,SK-MEL-28; read-out: TGI,> 50 µM
same,GI50,SK-MEL-28; read-out: pGI50 (converted),6.46 µM
same,CC50,SK-MEL-28; [2],> 50.1 µM
same,TGI,SK-MEL-28; read-out: pTGI,> 50.1 µM
same,GI50,UACC-62; read-out: GI50,5.33 µM
same,CC50,UACC-62; [1],> 50 µM
same,TGI,UACC-62; read-out: TGI,38.3 µM
same,GI50,UACC-62; read-out: pGI50 (converted),5.37 µM
same,CC50,UACC-62; [2],> 50.1 µM
same,TGI,UACC-62; read-out: pTGI (converted),38 µM
same,growth at 0.5 µM,OVCAR-3,104%
same,growth at 0.5 µM,NCI-H226,97%
same,growth at 5 µM,NCI-H460,92%
